Experiments:
Assay type in all cases: biochemical
PKC theta kinase = PKC theta kinase (Homo sapiens, UniProt Q04759); assay: PKC theta kinase inhibition, coupled-enzyme (NADH absorbance) assay, Ki; details: 240 μM ATP, 18 nM PKC theta kinase, 30° C.
Procedure: An assay buffer solution was prepared which consisted of 100 mM HEPES (pH 7.5), 10 mM MgCl2, 25 mM NaCl, 0.1 mM EDTA and 0.01% Brij. […] To 60 μL of this enzyme buffer, in a 384 well plate, was added 2 μL of VRT stock solution in DMSO. The mixture was allowed to equilibrate for 10 mins at 30° C. […] Ki values were calculated from initial rate data by non-linear regression using the Prism software package (Prism 4.0a, Graphpad Software, San Diego, Calif.).

PKC delta kinase = PKC delta kinase (Homo sapiens, UniProt Q05655); assay: PKC delta kinase inhibition, coupled-enzyme (NADH absorbance) assay, Ki; details: 150 μM ATP, 46 nM PKC delta kinase, 30° C.; read-out: Ki PKC delta
Procedure: (§1) An assay buffer solution was prepared which consisted of 100 mM HEPES (pH 7.5), 10 mM MgCl2, 25 mM NaCl, 0.1 mM EDTA and 0.01% Brij. […] To 16 μL of this enzyme buffer, in a 384 well plate, was added 1 μL of VRT stock solution in DMSO. The mixture was allowed to equilibrate for 10 mins at 30° C. The enzyme reaction was initiated by the addition of 16 μL stock ATP solution prepared in assay buffer to a final assay concentration of 150 μM. Initial rate data was determined from the rate of change of absorbance at 340 nm (corresponding to stoichiometric consumption of NADH) using a Molecular Devices Spectramax plate reader (Sunnyvale, Calif.) over 15 mins at 30° C. […] Ki values were calculated from initial rate data by non-linear regression using the Prism software package (Prism 4.0a, Graphpad Software, San Diego, Calif.).

PKC alpha kinase = PKC alpha kinase (Homo sapiens, UniProt P17252); assay: PKC alpha kinase inhibition, coupled-enzyme (NADH absorbance) assay, Ki; details: 130 μM ATP, 4.5 nM PKC alpha kinase, 30° C.
Procedure: as §1, with “EDTA, 100 μM CaCl2” for “EDTA”, “130” for “150”

Sequence of PKC delta kinase (Q05655 whole entry): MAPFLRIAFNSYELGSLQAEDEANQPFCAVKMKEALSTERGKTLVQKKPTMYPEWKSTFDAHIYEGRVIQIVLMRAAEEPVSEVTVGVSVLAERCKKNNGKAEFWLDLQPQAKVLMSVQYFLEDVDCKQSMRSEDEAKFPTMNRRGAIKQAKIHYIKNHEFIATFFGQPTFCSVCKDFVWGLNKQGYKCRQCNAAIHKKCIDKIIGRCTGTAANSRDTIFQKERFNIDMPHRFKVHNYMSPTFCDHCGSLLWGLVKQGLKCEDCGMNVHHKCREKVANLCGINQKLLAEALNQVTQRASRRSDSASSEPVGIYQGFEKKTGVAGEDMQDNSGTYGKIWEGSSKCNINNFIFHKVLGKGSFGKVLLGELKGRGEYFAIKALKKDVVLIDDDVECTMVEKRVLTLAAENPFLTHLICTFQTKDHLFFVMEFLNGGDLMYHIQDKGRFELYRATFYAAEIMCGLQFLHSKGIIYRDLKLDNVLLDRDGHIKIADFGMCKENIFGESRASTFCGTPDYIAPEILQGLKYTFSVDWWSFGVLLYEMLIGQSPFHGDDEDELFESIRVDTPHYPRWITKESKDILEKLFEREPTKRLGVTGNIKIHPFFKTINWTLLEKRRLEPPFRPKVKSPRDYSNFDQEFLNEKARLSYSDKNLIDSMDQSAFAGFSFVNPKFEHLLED
Sequence of PKC theta kinase (Q04759 whole entry): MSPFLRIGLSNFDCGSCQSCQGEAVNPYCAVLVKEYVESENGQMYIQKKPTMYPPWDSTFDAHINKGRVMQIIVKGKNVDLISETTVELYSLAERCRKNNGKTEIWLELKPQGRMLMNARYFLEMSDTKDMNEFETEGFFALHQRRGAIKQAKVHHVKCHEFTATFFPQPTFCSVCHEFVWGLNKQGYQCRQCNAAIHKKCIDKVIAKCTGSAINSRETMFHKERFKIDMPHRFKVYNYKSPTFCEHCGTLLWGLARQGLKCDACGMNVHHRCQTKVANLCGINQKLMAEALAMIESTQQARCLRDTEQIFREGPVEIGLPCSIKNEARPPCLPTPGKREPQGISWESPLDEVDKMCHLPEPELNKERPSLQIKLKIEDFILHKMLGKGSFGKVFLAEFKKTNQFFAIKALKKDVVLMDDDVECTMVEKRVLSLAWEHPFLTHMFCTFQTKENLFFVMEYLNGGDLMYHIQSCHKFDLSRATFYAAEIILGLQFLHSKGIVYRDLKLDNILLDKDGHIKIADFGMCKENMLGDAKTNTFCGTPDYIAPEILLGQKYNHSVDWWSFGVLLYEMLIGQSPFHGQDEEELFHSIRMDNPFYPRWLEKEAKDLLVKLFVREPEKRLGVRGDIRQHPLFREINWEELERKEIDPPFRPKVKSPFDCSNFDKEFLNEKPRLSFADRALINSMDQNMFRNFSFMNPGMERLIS

Row | Ki (PKC theta kinase) | Ki (PKC delta kinase) | Ki (PKC alpha kinase) | SMILES
1 | < 2800 nM | > 1250 nM | > 1250 nM | Cc1cc(N2CCC(N)CC2)nc(-c2n[nH]c3ncccc23)c1Cl [Compound 109]
2 | < 500 nM | > 1250 nM | > 1250 nM | CC(C)C[C@@H]1C[C@H](N)CN(c2ccc(C(F)(F)F)c(-c3n[nH]c4ncccc34)n2)C1 [Compound 364]
3 | < 50 nM | < 2800 nM | > 1250 nM | CC(C)C(N)C1CN(c2ccc(F)c(-c3n[nH]c4ncccc34)n2)CCO1 (stereo not shown) [Compound 346]
4 | < 1 nM | < 50 nM | < 2800 nM | CC(F)(F)C(C)(O)C1CN(c2ccc(F)c(-c3n[nH]c4ncccc34)n2)CCN1 (stereo not shown) [Compound 283]
5 | < 2800 nM | > 1250 nM | > 1250 nM | CC(C)CC1(O)CCCN(c2ccc(F)c(-c3n[nH]c4ncccc34)n2)C1 (stereo not shown) [Compound 295]
6 | < 50 nM | < 500 nM | > 1250 nM | CCC1(CC)CN(c2ccc(C(F)(F)F)c(-c3n[nH]c4ncccc34)n2)CCC1N (stereo not shown) [Compound 427]
7 | < 50 nM | < 500 nM | > 1250 nM | CCC1(C)CN(c2ccc(C(F)(F)F)c(-c3n[nH]c4ncccc34)n2)CCC1N (stereo not shown) [Compound 447]
8 | < 1 nM | < 50 nM | < 2800 nM | CC(C)C(C)(O)C1CN(c2nc(-c3n[nH]c4ncccc34)ccc2F)CCN1 (stereo not shown) [Compound 375]
9 | – | – | > 1250 nM | C[C@H]1CN(c2cccc(-c3n[nH]c4ncccc34)n2)CCN1 [Compound 19]
10 | – | – | < 2800 nM | CC(C)[C@H]1CN(c2cccc(-c3n[nH]c4ncccc34)n2)CCN1 [Compound 62]
11 | < 50 nM | < 2800 nM | – | CC(O)(c1ccccc1)C1CN(c2ccc(F)c(-c3n[nH]c4ncccc34)n2)CCN1 (stereo not shown) [Compound 323]
12 | < 50 nM | < 500 nM | – | c1cc(-c2n[nH]c3ncccc23)nc(N2CCCNCC2)c1 [Compound 1]
13 | – | > 1250 nM | > 1250 nM | CC(C)C(C)(O)C1CN(c2ccc(F)c(-c3n[nH]c4ncccc34)n2)CCN1 (stereo not shown) [Compound 205]
14 | > 700 nM | – | – | CC(C)C(O)[C@@H]1CCCN(c2ccc(F)c(-c3n[nH]c4ncccc34)n2)C1 (stereo partly shown) [Compound 279]
15 | < 500 nM | – | – | C#Cc1cnc2[nH]nc(-c3cccc(N4CCCNCC4)n3)c2c1 [Compound 2]
16 | – | < 2800 nM | > 1250 nM | CC(C)C[C@@H]1CN(c2ccc(F)c(-c3n[nH]c4ncccc34)n2)CCN1 [Compound 192]
17 | < 500 nM | < 2800 nM | – | CC(N)[C@H]1CCCN(c2ccc(F)c(-c3n[nH]c4ncccc34)n2)C1 (stereo partly shown) [Compound 263]
18 | < 50 nM | < 500 nM | – | CC(C)CC1(C)CN(c2ccc(C(F)(F)F)c(-c3n[nH]c4ncccc34)n2)CCC1N (stereo not shown) [Compound 388]
19 | > 700 nM | > 1250 nM | – | CCC(N)C1(C(F)(F)F)CCN(c2ccc(F)c(-c3n[nH]c4ncccc34)n2)C1 (stereo not shown) [Compound 449]
20 | – | < 2800 nM | – | CC(C)C(C)(O)C1CN(c2ccc(C(F)(F)F)c(-c3n[nH]c4ncccc34)n2)CCN1 (stereo not shown) [Compound 237]

Row | Ki (PKC theta kinase) | Ki (PKC delta kinase) | Ki (PKC alpha kinase) | SMILES
21 | – | < 500 nM | > 1250 nM | CC(O)(C1CC1)C1CN(c2ccc(F)c(-c3n[nH]c4ncccc34)n2)CCN1 (stereo not shown) [Compound 272]
22 | > 700 nM | – | > 1250 nM | CC1(CN)CCN(c2ccc(C(F)(F)F)c(-c3n[nH]c4ncccc34)n2)CC1 [Compound 463]
23 | – | – | < 500 nM | CC(C)C[C@H]1CN(c2cccc(-c3n[nH]c4ncccc34)n2)CC[C@H]1N [Compound 168]
24 | > 700 nM | – | > 1250 nM | CC(C)CC1(C#N)CCN(c2ccc(F)c(-c3n[nH]c4ncccc34)n2)CC1 [Compound 417]
25 | < 500 nM | – | > 1250 nM | CCC1CN(c2ccc(C(F)(F)F)c(-c3n[nH]c4ncccc34)n2)CCC1CN (stereo not shown) [Compound 465]
26 | – | – | < 2800 nM | CC(C)C[C@@H]1CN(c2cccc(-c3n[nH]c4ncccc34)n2)CCN1 [Compound 235]
27 | < 500 nM | – | – | N#CCCC1CN(c2ccc(C(F)(F)F)c(-c3n[nH]c4ncccc34)n2)CCC1O (stereo not shown) [Compound 460]
28 | < 50 nM | – | – | C[C@](O)(c1ccccc1)[C@@H]1CN(c2ccc(F)c(-c3n[nH]c4ncccc34)n2)CCN1 [Compound 276]
29 | – | – | < 2800 nM | c1cc(-c2n[nH]c3ncccc23)nc(N2CCNCC2)c1 [Compound 9]
30 | – | < 2800 nM | – | CC(C)(C)C(N)C1CCN(c2ccc(F)c(-c3n[nH]c4ncccc34)n2)C1 (stereo not shown) [Compound 422]
31 | < 50 nM | – | < 500 nM | CC(C)CC1CN(c2cncc(-c3n[nH]c4ncccc34)n2)CCC1N (stereo not shown) [Compound 468]
32 | – | – | > 1250 nM | CC(C)C(C)(O)C1CN(c2cc(CO)cc(-c3n[nH]c4ncccc34)n2)CCN1 (stereo not shown) [Compound 455]
33 | – | – | > 1250 nM | COC(C)(C(C)C)C1CN(c2ccc(F)c(-c3n[nH]c4ncccc34)n2)CCN1 (stereo not shown) [Compound 239]
34 | – | – | < 2800 nM | CC[C@@H]1CN(c2cccc(-c3n[nH]c4ncccc34)n2)CCN1 [Compound 67]
35 | > 700 nM | – | > 1250 nM | CC1(C#N)CCN(c2ccc(C(F)(F)F)c(-c3n[nH]c4ncccc34)n2)CC1 [Compound 415]
36 | – | – | > 1250 nM | COC[C@H]1CN(c2ccc(F)c(-c3n[nH]c4ncccc34)n2)CCN1 [Compound 185]
37 | – | – | < 500 nM | CC(C)CC1(C)CN(c2ccc(C(F)(F)F)c(-c3n[nH]c4ncccc34)n2)CCC1N (stereo not shown) [Compound 158]
38 | > 700 nM | – | > 1250 nM | CC1(C#N)CCN(c2ccc(F)c(-c3n[nH]c4ncccc34)n2)CC1 [Compound 416]
39 | – | < 500 nM | < 2800 nM | CC(C)C(C)(O)C1CN(c2ccc(F)c(-c3n[nH]c4ncccc34)n2)CCN1 (stereo not shown) [Compound 179]
40 | – | < 500 nM | > 1250 nM | CC(C)C(C)(O)C1CN(c2ccc(F)c(-c3n[nH]c4ncccc34)n2)CCN1 (stereo not shown) [Compound 180]

Row | Ki (PKC theta kinase) | Ki (PKC delta kinase) | Ki (PKC alpha kinase) | SMILES
41 | – | > 1250 nM | > 1250 nM | CC(C)C(C)(O)C1CN(c2ccc(F)c(-c3n[nH]c4ncccc34)n2)CCN1 (stereo not shown) [Compound 200]
42 | – | – | < 2800 nM | c1ccc(C2CN(c3cccc(-c4n[nH]c5ncccc45)n3)CCN2)cc1 (stereo not shown) [Compound 21]
43 | – | – | > 1250 nM | C[C@@H]1CN(c2cccc(-c3n[nH]c4ncccc34)n2)CCN1 [Compound 70]
44 | – | > 1250 nM | > 1250 nM | CC(C)C(C)(O)C1CN(c2ccc(F)c(-c3n[nH]c4ncccc34)n2)CCN1C (stereo not shown) [Compound 229]
45 | – | > 1250 nM | – | CCC(CC)C(N)C1CCCN(c2ccc(F)c(-c3n[nH]c4ncccc34)n2)C1 (stereo not shown) [Compound 392]
46 | < 50 nM | < 500 nM | – | CC(C)C(C)(O)C1CN(c2ccc(F)c(-c3n[nH]c4ncccc34)n2)CCN1C (stereo not shown) [Compound 231]
47 | < 50 nM | < 2800 nM | – | CNC(C1CCCN(c2ccc(F)c(-c3n[nH]c4ncccc34)n2)C1)C(C)(C)C (stereo not shown) [Compound 409]
48 | < 50 nM | – | – | CC(C)C(C)(O)C1CN(c2cccc(-c3n[nH]c4ncccc34)n2)CCN1 (stereo not shown) [Compound 178]
49 | > 700 nM | – | – | Fc1ccc(N2CCCC(C3CCCN3)C2)nc1-c1n[nH]c2ncccc12 (stereo not shown) [Compound 315]
50 | – | < 2800 nM | > 1250 nM | CC(O)(C1CC1)C1CN(c2ccc(F)c(-c3n[nH]c4ncccc34)n2)CCN1 (stereo not shown) [Compound 273]
51 | – | < 500 nM | – | CC(C)C(C)(O)C1CN(c2ccc(Cl)c(-c3n[nH]c4ncccc34)n2)CCN1 (stereo not shown) [Compound 438]
52 | – | < 500 nM | > 1250 nM | CC(C)C(C)(O)C1CN(c2ccc(F)c(-c3n[nH]c4ncccc34)n2)CCN1 (stereo not shown) [Compound 204]
53 | – | < 2800 nM | – | CC(C)(C)CC(N)C1CCCN(c2ccc(F)c(-c3n[nH]c4ncccc34)n2)C1 (stereo not shown) [Compound 318]
54 | – | > 1250 nM | – | NCC1CN(c2ccc(F)c(-c3n[nH]c4ncccc34)n2)CCC1O (stereo not shown) [Compound 297]
55 | – | < 500 nM | < 2800 nM | CC(C)C(C)(O)C1CN(c2ccc(F)c(-c3n[nH]c4ncccc34)n2)CCN1 (stereo not shown) [Compound 201]
56 | – | – | < 2800 nM | CC(C)C[C@H]1CN(c2cccc(-c3n[nH]c4ncccc34)n2)CCN1 [Compound 7, (S)-3-(6-(3-isobutylpiperazin-1-yl)pyridin-2-yl)-1H-pyrazolo[3,4-b]pyridine]
57 | – | < 500 nM | > 1250 nM | CC(O)(C1CC1)C1CN(c2ccc(F)c(-c3n[nH]c4ncccc34)n2)CCN1 (stereo not shown) [Compound 271]
58 | – | < 500 nM | > 1250 nM | CC(C)C[C@H]1CN(c2ccc(F)c(-c3n[nH]c4ncccc34)n2)CCN1 [Compound 112]
59 | – | – | < 500 nM | CC(C)C(C)(O)C1CN(c2cncc(-c3n[nH]c4ncccc34)n2)CCN1 (stereo not shown) [Compound 470]
